# Data published in patent US5821329A, “Cyclic peptide inhibitors of β1 and β2 integrin-mediated adhesion” (Tanabe Seiyaku Co., Ltd., priority 1996, dated 1998).
# Tests used:
# [1] = system: Jurkat cell adhesion to IL-1 stimulated endothelial cells (β1 integrins, α4 β1); test: Jurkat-Endothelial Cell Adhesion Assay; format: cell-based, human; details: Jurkat T cells on IL-1 stimulated HUVEC; no unit printed in the table (text gives IC50 and test concentrations in μM); read-out: IC50 for adhesion inhibition Jurk-EC
# Description: Jurkat-Endothelial Cell Adhesion Assay […] This assay measured the adhesive interactions of a T-cell line, Jurkat, known to express high levels of α4 β1, to endothelial cell monolayers in the presence of representative test compounds of the present invention. The test compounds were added in increasing concentrations to T-cells and then the T-cell/compound mixture was added to IL-1 stimulated endothelial cell monolayers. The plates were incubated, washed and the percentage of attached cells was quantitated. […] Human umbilical vein endothelial cells (HUVEC) were purchased from Clonetics (San Diego, Calif.) at passage number 2. The cells were grown on 0.5% porcine skin gelatin pre-coated flasks (Sigma, St. Louis, Mo.) in EGM-UV media (Clonetics, San Diego, Calif.) supplemented with 10% fetal bovine serum. Cells were re-fed every 2-3 days, reaching confluence by day 4 to 6. […] The endothelial cells were not used following passage 7. The T-cell line Jurkat was obtained from American Type Culture Collection and cultured in RPMI media containing 10% fetal calf serum. […] Following this incubation, the monolayers were washed twice with PBS containing 1 mM calcium chloride and 1 mM magnesium chloride and the plates were read using a Millipore Cytofluor 2300 (Marlboro, Mass.). […] Monolayers were also fixed in 3% paraformaldehyde and evaluated microscopically to verify the adhesion. […]
# [2] = system: JY cell adhesion to TNF stimulated endothelial cells (β2 integrins); test: JY-Endothelial Cell adhesion assay; format: cell-based, human; details: JY B cells + PMA on rTNF-stimulated HUVEC; no unit printed in the table (text gives IC50 and test concentrations in μM); read-out: IC50 for adhesion inhibition JY-EC
# Description: The JY-Endothelial Cell Assay
# The following assay established the activity of the present compounds in inhibiting cell adhesion through β2 integrins in a representative in vitro system.
# The human B cell line, JY, was cultured in RPMI media containing 10% fetal calf serum at 37° C., in a humidified CO2 atmosphere. Endothelial cells were grown to confluency in 96-well micro-titer assay plates, as in the Jurkat-EC assay. Before the assay, the endothelial cells were stimulated with 50 U/ml rTNF for 18-24 hours at 37° C. JY cells were loaded with the fluorescent dye indicator BCECF-AM as follows: JY cells were washed twice with HBSS and cells were resuspended in HBSS at 5×10^6 cells/ml; BCECF-AM (Molecular Probes), stock concentration=1 mg/ml in DMSO, was added to the JY cells to a final concentration of 2 μg/ml; cells were incubated in the dark at 37° C. for 30-45 minutes; washed twice with HBSS and used in the assay. […]
# The assay plates were then typically incubated for 30 min at 37° C. and washed four times with PBS containing Mg^2+ and Ca^2+ (room temp). 100 μl of PBS containing Mg^2+ and Ca^2+ were added to each well and the fluorescence from the adherent BCECF-labelled cells was analyzed using a fluorescence plate reader. […]
IC50 [1] [µM],IC50 [2] [µM],Substance
267,,(1-FCA)-Arg-Cys*-(β-Asp)-(ThioP)-Cys*-Ala-Ala-Asp-(OFm) [Compound 35]
,52,(Fmoc)-Arg-Cys*-(β-Asp)-(ThioP)-Cys* [Compound 22]
106,,(Ac)-Arg-Cys*-(β-Asp)-(ThioP)-Cys*-Ala-Asp-(OFm) [Compound 37]
,353,(9-FAc)-Arg-Cys*-(β-Asp)-(ThioP)-Cys*-(Abu)-Lys [Compound 65]
